Source: US20080085273A1, “VEHICLE FOR THE TRANSPORT OF A CHOSEN MOLECULE TO A CELL” (Synvolux IP B.V., priority 2004, published 2008)

Tested on: Human Embryonic Kidney cells, strain 293A
Assay: Transfection of Human Embryonic Kidney cells with CMV-GFP plasmid complexed with SAINT-molecules, GFP expression by FACS
Type: cell-based
Settings: 293A cells, 12 well plates; 500 ng CMV-GFP plasmid complexed with 3.75 nm SAINT molecules or linker per well; FACS 48 hours after transfection
Description: FIG. 1 is the result of Human Embryonic Kidney cells, strain 293A, cultured in 12 well plates and are transfected with 4 combinations of SAINT-molecules (i.e. SAINT-18, SAINT-18 coupled to RGD, a mixture of SAINT-18 and SAINT-18 coupled to RGD, and SAINT-18 linker).
Human Embryonic Kidney cells are difficult to be transfected. When using these cells, main competing transfection methods (of other manufacturers), require several micrograms of plasmid DNA for successful transfection. Combined with SAINT-18, 1 μg (per 12 wells) normally results in a transfection rate above 90%. To be able to visualize the enhancing effect of the targeting moiety SAINT-18-RGD, in this protocol we used a low amount of plasmid DNA (500 ng per 12 wells). The structural formula of SAINT-linker-RGD is depicted in […]. In addition, an RGD-peptide is coupled to the SATA-group of the SAINT-Linker, as described in the present invention. The RGD group is a targeting moiety for the integrin receptor family and is though to increase the transfection efficacy. Human Embryonic Kidney cells, strain 293A, are cultured in 12 well plates and are transfected with 4 combinations of Saint-molecules (i.e. SAINT-18, SAINT-18 coupled to RGD, a mixture of SAINT-18 and SAINT-18 coupled to RGD, and only a linker molecule as a reference). […] 48 hours after transfection GFP expression is measured by FACS analysis. […]

## CCCCCCCC/C=C\CCCCCCCCC(CCCCNC(=O)C1CCC(CN2C(=O)CC(SCC(=O)NC(=N)NCCCC(C)C(=O)NCC(=O)NC(CC(=O)O)C(=O)O)C2=O)CC1)c1cc[n+](C)cc1.[Cl-] (stereo not shown) [S18/RGD]
  transfection ability (percentage of GFP positive cells, FIG. 1, result in words): able to transfect cells
